Data set [1] has as its system Pyrenophora teres. As to the kind of experiment: Example B-8: Action against Pyrenophora teres (net blotch) on barley leaf segments. The data set is classed as in vivo. To be noted: foliar, 96 h, 0.02% active ingredient, 4 days after inoculation, read-out: preventive fungicidal activity (inhibition). As for the experimental part: Action Against Pyrenophora teres (Net Blotch) on Barley Barley leaf segments were placed on agar in multiwell plates (24-well format) and sprayed with test solutions (0.02% active ingredient). After drying, the leaf disks were inoculated with a spore suspension of the fungus. After appropriate incubation the activity of a compound was assessed 4 days after inoculation as preventive fungicidal activity.

In data set [2] the test system is Puccinia recondita. Nature of the data set: Example B-6: Protective action against Puccinia recondita (brown rust) on wheat leaf segments. The data set is classed as in vivo. To be noted: foliar, 192 h, 0.02% active ingredient, 8 days after inoculation, read-out: preventive fungicidal activity (inhibition). The method, then:
Protective Action Against Puccinia recondita (Brown Rust) on Wheat Wheat leaf segments were placed on agar in multiwell plates (24-well format) and sprayed with test solutions (0.02% active ingredient). After drying, the leaf disks were inoculated with a spore suspension of the fungus. After appropriate incubation the activity of a compound was assessed 8 days after inoculation as preventive fungicidal activity.

The subject of data set [3] is Mycosphaerella arachidis (Cercospora arachidicola). Nature of the data set: Example B-2: Action against Mycosphaerella arachidis, fungal growth assay. The data set is classed as cell-based. The settings on record: 0.002% active ingredient, PDB broth, 24° C., photometric after 6-7 days. As for the experimental part:
(§1) Action Against Mycosphaerella arachidis (Early Leaf Spot of Groundnut; Cercospora arachidicola [fanamorph])—Fungal Growth Assay Conidia of the fungus from cryogenic storage were directly mixed into nutrient broth (PDB potato dextrose broth). After placing a (DMSO) solution of the test compounds (0.002% active ingredient) into a microtiter plate (96-well format) the nutrient broth containing the fungal spores was added. The test plates were incubated at 24° C. and the inhibition of growth was measured photometrically after 6-7 days. The activity of a compound was expressed as fungal growth inhibition (0=no growth inhibition, ratings of 80% to 99% mean good to very good inhibition, 100%=complete inhibition).

The test system of another data set is Septoria tritici. Nature of the data set: Example B-3: Action against Septoria tritici, fungal growth assay. The data set is classed as cell-based. To be noted: Zymoseptoria tritici; 0.002% active ingredient; PDB broth, 24° C., photometric after 72 hrs. The method, then: as §1, with “Septoria tritici—Fungal” for “Mycosphaerella arachidis (Early Leaf Spot of Groundnut; Cercospora arachidicola [fanamorph])—Fungal”, “determined” for “measured”, “72 hrs.” for “6-7 days.”

For data set [4], the system named is Erysiphe graminis f. sp. tritici. Nature of the data set: Example B-5: Action against Erysiphe graminis f. sp. tritici (wheat powdery mildew), wheat leaf segments. The settings on record: Blumeria graminis, foliar, 168 h, 0.02% active ingredient, 7 days after inoculation, read-out: preventive fungicidal activity (inhibition). The data set is classed as in vivo. The method, then: Action Against Erysiphe graminis f. sp. tritici (Wheat Powdery Mildew) Wheat leaf segments were placed on agar in multiwell plates (24-well format) and sprayed with test solutions (0.02% active ingredient). After drying, the leaf disks were inoculated with a spore suspension of the fungus. After appropriate incubation the activity of a compound was assessed 7 days after inoculation as preventive fungicidal activity.

The test system of a further data set is Botrvtis cinerea. Nature of the data set: Example B-1: Action against Botrytis cinerea, fungal growth assay. It is filed as cell-based. The settings on record: 0.002% active ingredient, PDB broth, 24° C., photometric after 3-4 days. As for the experimental part:
as §1, with “Action against Botrvtis cinerea—fungal growth assay” for “Action Against Mycosphaerella arachidis (Early Leaf Spot of Groundnut; Cercospora arachidicola [fanamorph])—Fungal Growth Assay”, “storage was” for “storage were”, “after 3-4” for “after 6-7”

For data set [5], the system named is Puccinia recondita. Nature of the data set: Example B-7: Curative action against Puccinia recondita (brown rust) on wheat leaf segments. The data set is classed as in vivo. The settings on record: 0.02% active ingredient sprayed one day after inoculation, 8 days after inoculation. The method, then:
Curative Action Against Puccinia recondita (Brown Rust) on Wheat Wheat leaf segments were placed on agar in multiwell plates (24-well format) and inoculated with a spore suspension of the fungus. One day after inoculation the leaf segments were sprayed with test solutions (0.02% active ingredient). After appropriate incubation the activity of a compound was assessed 8 days after inoculation as curative fungicidal activity.

In data set [6] the test system is Phaeosphaeria nodorum (Septoria nodorum). As to the kind of experiment: Example B-11: Phaeosphaeria nodorum / wheat / leaf disc preventative (comparative). The data set is classed as in vivo. To be noted: 4 dpi. As for the experimental part: Phaeosphaeria nodorum (Septoria nodorum)/Wheat/Leaf Disc Preventative (Glume Blotch) Wheat leaf segments were placed on agar in a multiwell plate (24-well format) and sprayed with test solutions. After drying, the leaf disks were inoculated with a spore suspension of the fungus. After appropriate incubation the activity of a compound was assessed 4 dpi (days after inoculation) as preventive fungicidal activity.

The subject of data set [7] is Blumeria graminis f. sp. tritici (Erysiphe graminis f. sp. tritici). As to the kind of experiment: Example B-9: Blumeria graminis f. sp. tritici / wheat / leaf disc preventive (comparative). It is filed as in vivo. To be noted: 4 dpi. As for the experimental part:
Blumeria graminis f. sp. tritici (Erysiphe graminis f. sp. tritici)/Wheat/Leaf Disc Preventive (Powdery mildew on wheat) Wheat leaf segments were placed on agar in a multiwell plate (24-well format) and sprayed with test solutions. After drying, the leaf disks were inoculated with a spore suspension of the fungus. After appropriate incubation the activity of a compound was assessed 4 dpi (days after inoculation) as preventive fungicidal activity.

For a further data set, the system named is Alternaria solani. Nature of the data set: Example B-13: Alternaria solani / tomato / leaf disc (comparative). The data set is classed as in vivo. To be noted: 4 dpi. The method, then: Alternaria solani/Tomato/Leaf Disc (Early Blight) Tomato leaf disks were placed on water agar in multiwell plates (24-well format) and sprayed with test solutions. After drying, the leaf disks were inoculated with a spore suspension of the fungus. After appropriate incubation the activity of a compound was assessed 4 dpi (days after inoculation) as preventive fungicidal activity.

Data set [8] has as its system Puccinia recondita. Nature of the data set: Example B-10: Puccinia recondita / wheat / leaf disc preventative (comparative). The data set is classed as in vivo. The settings on record: 8 dpi. As for the experimental part: Puccinia recondita/Wheat/Leaf Disc Preventative (Brown Rust) Wheat leaf segments were placed on agar in multiwell plates (24-well format) and sprayed with test solutions. After drying, the leaf disks were inoculated with a spore suspension of the fungus. After appropriate incubation the activity of a compound was assessed 8 dpi (days after inoculation) as preventive fungicidal activity.

The test system of data set [9] is Botryotinia fuckeliana (Botrytis cinerea). Nature of the data set: Example B-14: Botryotinia fuckeliana (Botrytis cinerea) / liquid culture (comparative). It is filed as cell-based. To be noted: 24° C., photometric after 3-4 days, read-out: inhibition of growth. The method, then: Botryotinia fuckeliana (Botrytis cinerea)/Liquid Culture (Gray Mould) Conidia of the fungus from cryogenic storage were directly mixed into nutrient broth. After placing a (DMSO) solution of the test compounds into a microtiter plate (96-well format) the nutrient broth containing the fungal spores was added. The test plates were incubated at 24° C. and the inhibition of growth is determined photometrically after 3-4 days.

For the next data set, the system named is Gaeumannomyces graminis. As to the kind of experiment: Example B-17: Gaeumannomyces graminis / liquid culture (comparative). The data set is classed as cell-based. To be noted: 24 C, photometric after 2-3 days, read-out: inhibition of growth. As for the experimental part:
Gaeumannomyces graminis/Liquid Culture (Take-All of Cereals) Mycelial fragments of the fungus from cryogenic storage were directly mixed into nutrient broth (PDB potato dextrose broth). After placing a (DMSO) solution of the test compounds into a microtiter plate (96-well format) the nutrient broth containing the fungal spores was added. The test plates were incubated at 24 C and the inhibition of growth was determined photometrically after 2-3 days.

Data set [10] deals with Pyrenophora teres. Nature of the data set: Example B-12: Pyrenophora teres / barley / leaf disc preventive (comparative). The settings on record: 4 dpi. The data set is classed as in vivo. The method, then: Pyrenophora teres/Barley/Leaf Disc Preventive (Net Blotch) Barley leaf segments were placed on agar in a multiwell plate (24-well format) and sprayed with test solutions. After drying, the leaf disks were inoculated with a spore suspension of the fungus. After appropriate incubation the activity of a compound was assessed 4 dpi (days after inoculation) as preventive fungicidal activity.

Data set [11] concerns Mycosphaerella praminicola (Seotoria tritici). As to the kind of experiment: Example B-16: Mycosphaerella graminicola (Septoria tritici) / liquid culture (comparative). The data set is classed as cell-based. The settings on record: 96 h, 24° C., photometric after 4 days, read-out: inhibition of growth. As for the experimental part:
Mycosphaerella praminicola (Seotoria tritici)/Liquid Culture (Septoria Blotch) Conidia of the fungus from cryogenic storage were directly mixed into nutrient broth (PDB potato dextrose broth). After placing a (DMSO) solution of the test compounds into a microtiter plate (96-well format) the nutrient broth containing the fungal spores was added. The test plates were incubated at 24° C. and the inhibition of growth is measured photometrically after 4 days.

For data set [12], the system named is Monopraphella nivalis (Microdochium nivale). As to the kind of experiment: Example B-18: Monographella nivalis (Microdochium nivale) / liquid culture (comparative). To be noted: 24° C., photometric after 4-6 days, read-out: inhibition of growth. The data set is classed as cell-based. The method, then:
Monopraphella nivalis (Microdochium nivale)/Liquid Culture (Foot Rot Cereals Conidia of the fungus from cryogenic storage were directly mixed into nutrient broth (PDB potato dextrose broth). After placing a (DMSO) solution of the test compounds into a microtiter plate (96-well format) the nutrient broth containing the fungal spores was added. The test plates were incubated at 24° C. and the inhibition of growth is measured photometrically after 4-6 days.

In data set [13] the test system is Mycosphaerella arachidis (Cercospora arachidicola). As to the kind of experiment: Example B-15: Mycosphaerella arachidis / liquid culture (comparative). It is filed as cell-based. To be noted: 24° C., photometric after 6-7 days, read-out: inhibition of growth. As for the experimental part: Mycosphaerella arachidis (Cercospora arachidicola)/Liquid Culture (Early Leaf Spot) Conidia of the fungus from cryogenic storage were directly mixed into nutrient broth (PDB potato dextrose broth). After placing a (DMSO) solution of the test compounds into a microtiter plate (96-well format) the nutrient broth containing the fungal spores was added. The test plates were incubated at 24° C. and the inhibition of growth is measured photometrically after 6-7 days.

Here are results for five compounds from US8357634B2, “N-alkoxycarboxamides and their use as microbiocides” (Syngenta Crop Protection LLC, priority 2009, dated 2013).

Molecules are shown by their SMILES.

Broadly, the inhibition is the share of the control response that was lost under treatment. The melting point is the temperature, or range, at which the solid turns liquid. With `CON(C(=O)c1cn(C)nc1C(F)F)C(C)c1ccc(I)cc1` (centres unmarked) [Compound 1.003, 3-difluoromethyl-1-methyl-1H-pyrazole-4-carboxylic acid [1-(4-iodo-phenyl)-ethyl]-methoxy-amide], the melting point is 72 to 74 °C. In addition, in the data set on Pyrenophora teres [1], the inhibition at 0.02 % strength was at least 80%. Besides, in the data set with Puccinia recondita [2], the inhibition at 0.02 % strength is at least 80%. In addition, in data set [3], the inhibition at 0.002 % strength is at least 80%. This compound also came in with an inhibition at 0.002 % strength in the data set on Septoria tritici of at least 80%. Moreover, in data set [4], the inhibition at 0.02 % strength was at least 80%.
The compound `CON(C(=O)c1cn(C)nc1C(F)F)C(C)c1cccc(-c2ccc(Cl)c(Cl)c2)c1` (centres unmarked) [Compound 1.020, 3-difluoromethyl-1-methyl-1H-pyrazole-4-carboxylic acid [1-(3′,4′-dichloro-biphenyl-3-yl)-ethyl]-methoxy-amide] returned a melting point of 162 to 164 °C. For the same compound, in the data set with Pyrenophora teres [1], the inhibition at 0.02 % strength was at least 80%. The inhibition at 0.002 % strength in the data set on Botrvtis cinerea was at least 80%. Further, the inhibition at 0.02 % strength in the data set on Puccinia recondita [2] was at least 80%. Besides, the inhibition at 0.002 % strength in [3] was at least 80%. The compound also returned an inhibition at 0.002 % strength with Septoria tritici of at least 80%.
`CON(Cc1cccc(I)c1)C(=O)c1cn(C)nc1C(F)F` [Compound 1.097, 3-difluoromethyl-1,1-dimethyl-1H-pyrazole-4-carboxylic acid (3-iodo-benzyl)-methoxy-amide] had a melting point of 114 to 116 °C. In addition, the inhibition at 0.002 % strength in the data set on Botrvtis cinerea was at least 80%. This compound also returned an inhibition at 0.002 % strength in [3] of at least 80%. The compound further came in with an inhibition at 0.002 % strength in the data set with Septoria tritici of at least 80%.
Consider `CON(C(=O)c1cn(C)nc1C(F)F)C(CF)c1ccc(Cl)cc1` (centres unmarked) [Compound 1.107], for which, in the data set on Puccinia recondita [5], the “curative fungicidal activity (inhibition)” value is 50%.
In the case of `CC(NC(=O)c1cn(C)nc1C(F)F)c1ccc(Cl)cc1Cl` (centres unmarked) [No. 1.042 (prior art), reference compound], the preventive fungicidal activity in data set [6] (20 ppm) worked out at 0; in [6] (60 ppm) it was 0; in [6] (200 ppm), 70; in [7] (20 ppm) it was 0; in data set [7] (60 ppm) it was 50; in data set [7] (200 ppm), 100. The preventive fungicidal activity was 0 in the data set on Alternaria solani (20 ppm); 20 in the data set on Alternaria solani (60 ppm); 70 with Alternaria solani (200 ppm); 0 in the data set with Puccinia recondita [8] (20 ppm); 0 in the data set with Puccinia recondita [8] (60 ppm); 50 in the data set with Puccinia recondita [8] (200 ppm). In addition, the figures for the preventive fungicidal activity in the data set with Pyrenophora teres [10] (20 ppm), in the data set with Pyrenophora teres [10] (60 ppm) and with Pyrenophora teres [10] (200 ppm) were 50, 90 and 100, respectively. Also, the inhibition at 20 ppm is 0% in [9] (20 ppm); 0% in the data set on Gaeumannomyces graminis (20 ppm); 100% in [11] (20 ppm); 0% in data set [12] (20 ppm); 100% in data set [13] (20 ppm). Besides, the inhibition at 60 ppm in data set [9] (60 ppm) turned out to be 20%; in the data set with Gaeumannomyces graminis (60 ppm) it was 0%; in data set [11] (60 ppm), 100%; in data set [12] (60 ppm), 50%; in [13] (60 ppm), 100%. Moreover, the inhibition at 200 ppm in data set [9] (200 ppm) was 50%. Also, the inhibition at 6 ppm with Gaeumannomyces graminis (6 ppm) was 0%; in [11] (6 ppm), 20%; in data set [12] (6 ppm) it was 0%; in [13] (6 ppm), 0%.
